ChEMBL document CHEMBL1275354, “Anticonvulsant activity of 2,4(1H)-diarylimidazoles in mice and rats acute seizure models” (Bioorg Med Chem, 2010)
Calls of active or inactive are those of the source. The calls are words filed in the database; no cut-off is given here.

How the values were obtained:
Mus musculus [1] = assay: Anticonvulsant activity against subcutaneous metrazole-induced seizures in ip dosed albino CF1 mouse assessed as minimum effective dose after 4 hrs; format: functional; conditions: albino CF1, 4 h, read-out: MED
Mus musculus [2] = assay: Anticonvulsant activity in albino CF1 mouse assessed as protection against subcutaneous metrazole-induced seizures at 300 mg/kg, ip after 0.5 hrs; format: functional, organism-based; design: dose 300 mg/kg
Rattus norvegicus [3] = assay: Anticonvulsant activity in albino Sprague-Dawley rat assessed as protection against maximal electroshock-induced seizures at 30 mg/kg, po after 2 hrs; format: functional, organism-based; design: dose 30 mg/kg
Rattus norvegicus [4] = assay: Anticonvulsant activity in albino Sprague-Dawley rat assessed as protection against maximal electroshock-induced seizures at 30 mg/kg, po after 4 hrs; format: functional, organism-based; design: dose 30 mg/kg
Mus musculus [5] = assay: Anticonvulsant activity in albino CF1 mouse assessed as protection against maximal electroshock-induced seizures at 30 mg/kg, ip after 0.5 hrs; format: functional, organism-based; design: dose 30 mg/kg
Rattus norvegicus [6] = assay: Anticonvulsant activity in albino Sprague-Dawley rat assessed as protection against maximal electroshock-induced seizures at 30 mg/kg, po after 0.5 hrs; format: functional, organism-based; design: dose 30 mg/kg
Mus musculus [7] = assay: Neurotoxicity in albino CF1 mouse assessed as minimal motor impairment at 100 mg/kg, ip after 4 hrs by rotarod test; format: toxicity, organism-based; design: dose 100 mg/kg, route intraperitoneal; conditions: in vivo
Mus musculus [8] = assay: Neurotoxicity in albino CF1 mouse assessed as minimal motor impairment at 30 mg/kg, ip after 0.5 hrs by rotarod test; format: toxicity, organism-based; design: dose 30 mg/kg, route intraperitoneal; conditions: in vivo
Mus musculus [9] = assay: Neurotoxicity in ip dosed albino CF1 mouse assessed as minimum dose required to cause toxicity after 4 hrs by rotarod test; format: organism-based; conditions: in vivo
Mus musculus [10] = assay: Anticonvulsant activity against subcutaneous metrazole-induced seizures in ip dosed albino CF1 mouse assessed as minimum effective dose after 0.5 hrs; format: functional; conditions: albino CF1, 0.5 h, read-out: MED
Mus musculus [11] = assay: Anticonvulsant activity in albino CF1 mouse assessed as protection against subcutaneous metrazole-induced seizures at 300 mg/kg, ip after 4 hrs; format: functional, organism-based; design: dose 300 mg/kg
Mus musculus [12] = assay: Neurotoxicity in albino CF1 mouse assessed as minimal motor impairment at 30 to 300 mg/kg, ip after 0.5 hrs by rotarod test; conditions: in vivo
Mus musculus [13] = assay: Anticonvulsant activity in albino CF1 mouse assessed as protection against maximal electroshock-induced seizures at 300 mg/kg, ip after 4 hrs; format: functional, organism-based; design: dose 300 mg/kg
Rattus norvegicus [14] = assay: Anticonvulsant activity in albino Sprague-Dawley rat assessed as protection against maximal electroshock-induced seizures at 30 mg/kg, po after 1 hr; format: functional, organism-based; design: dose 30 mg/kg
Mus musculus [15] = assay: Neurotoxicity in albino CF1 mouse assessed as minimal motor impairment at 300 mg/kg, ip after 4 hrs by rotarod test; format: toxicity, organism-based; design: dose 300 mg/kg, route intraperitoneal; conditions: in vivo
Mus musculus [16] = assay: Neurotoxicity in albino CF1 mouse assessed as minimal motor impairment at 30 mg/kg, ip after 4 hrs by rotarod test; format: toxicity, organism-based; design: dose 30 mg/kg, route intraperitoneal; conditions: in vivo
Mus musculus [17] = assay: Neurotoxicity in albino CF1 mouse assessed as minimal motor impairment at 30 to 300 mg/kg, po after 4 hrs by rotarod test; format: toxicity, organism-based; design: dose 30-300 mg/kg, route oral; conditions: in vivo
Mus musculus [18] = assay: Neurotoxicity in ip dosed albino CF1 mouse assessed as minimum dose required to cause toxicity after 0.5 hrs by rotarod test; format: organism-based; conditions: in vivo
Mus musculus [19] = assay: Anticonvulsant activity in albino CF1 mouse assessed as protection against subcutaneous metrazole-induced seizures at 30 mg/kg, ip after 0.5 hrs; format: functional, organism-based; design: dose 30 mg/kg
Rattus norvegicus [20] = assay: Neurotoxicity in albino Sprague-Dawley rat assessed as minimal motor impairment at 30 mg/kg, po by rotarod test; format: toxicity, organism-based; design: dose 30 mg/kg, route oral; conditions: in vivo
Mus musculus [21] = assay: Anticonvulsant activity in albino CF1 mouse assessed as protection against maximal electroshock-induced seizures at 100 mg/kg, ip after 0.5 hrs; format: functional, organism-based; design: dose 100 mg/kg
Rattus norvegicus [22] = assay: Anticonvulsant activity in albino Sprague-Dawley rat assessed as protection against maximal electroshock-induced seizures at 30 mg/kg, po after 0.25 hrs; format: functional, organism-based; design: dose 30 mg/kg
Mus musculus [23] = assay: Anticonvulsant activity against maximal electroshock-induced seizures in ip dosed albino CF1 mouse assessed as minimum effective dose after 4 hrs; format: functional; conditions: read-out: MED
Mus musculus [24] = assay: Anticonvulsant activity in albino CF1 mouse assessed as protection against subcutaneous metrazole-induced seizures at 100 mg/kg, ip after 4 hrs; format: functional, organism-based; design: dose 100 mg/kg
Mus musculus [25] = assay: Anticonvulsant activity in albino CF1 mouse assessed as protection against maximal electroshock-induced seizures at 300 mg/kg, ip after 0.5 hrs; format: functional, organism-based; design: dose 300 mg/kg
Mus musculus [26] = assay: Anticonvulsant activity in albino CF1 mouse assessed as protection against maximal electroshock-induced seizures at 30 mg/kg, ip after 4 hrs; format: functional, organism-based; design: dose 30 mg/kg
Mus musculus [27] = assay: Anticonvulsant activity against maximal electroshock-induced seizures in ip dosed albino CF1 mouse assessed as minimum effective dose after 0.5 hrs; format: functional; conditions: read-out: MED
Mus musculus [28] = assay: Anticonvulsant activity in albino CF1 mouse assessed as protection against subcutaneous metrazole-induced seizures at 100 mg/kg, ip after 0.5 hrs; format: functional, organism-based; design: dose 100 mg/kg
Mus musculus [29] = assay: Anticonvulsant activity in albino CF1 mouse assessed as protection against subcutaneous metrazole-induced seizures at 30 mg/kg, ip after 4 hrs; format: functional, organism-based; design: dose 30 mg/kg
Mus musculus [30] = assay: Neurotoxicity in albino CF1 mouse assessed as minimal motor impairment at 100 mg/kg, ip after 0.5 hrs by rotarod test; format: toxicity, organism-based; design: dose 100 mg/kg, route intraperitoneal; conditions: in vivo
Mus musculus [31] = assay: Neurotoxicity in albino CF1 mouse assessed as minimal motor impairment at 300 mg/kg, ip after 0.5 hrs by rotarod test; format: toxicity, organism-based; design: dose 300 mg/kg, route intraperitoneal; conditions: in vivo
Mus musculus [32] = assay: Anticonvulsant activity in albino CF1 mouse assessed as protection against maximal electroshock-induced seizures at 100 mg/kg, ip after 4 hrs; format: functional, organism-based; design: dose 100 mg/kg

Structure (SMILES) | minimal effective dose (Mus musculus [1]) [mg/kg] | Activity (Mus musculus [2]) | Activity (Mus musculus [5]) | Activity (Mus musculus [7]) | Activity (Mus musculus [8]) | MED (Mus musculus [9]) [mg/kg] | minimal effective dose (Mus musculus [10]) [mg/kg] | Activity (Mus musculus [11]) | Activity (Mus musculus [12]) | Activity (Mus musculus [13]) | Activity (Mus musculus [16]) | MED (Mus musculus [18]) [mg/kg] | Activity (Mus musculus [19]) | minimal effective dose (Mus musculus [23]) [mg/kg] | Activity (Mus musculus [24]) | Activity (Mus musculus [25]) | Activity (Mus musculus [26]) | minimal effective dose (Mus musculus [27]) [mg/kg] | Activity (Mus musculus [28]) | Activity (Mus musculus [29]) | further results
COc1cccc(-c2c[nH]c(-c3ccccc3)n2)c1 | > 300 | inactive | inactive | Non-toxic | Non-toxic | > 300 | > 300 | inactive | Non-toxic | inactive | Non-toxic | 100 | inactive | > 300 | inactive | Active | inactive | > 30 | inactive | inactive | Activity (Rattus norvegicus [3]): inactive; Activity (Rattus norvegicus [4]): inactive; Activity (Rattus norvegicus [6]): inactive; Activity (Rattus norvegicus [14]): inactive; Activity (Mus musculus [15]): Non-toxic; Activity (Mus musculus [17]): Non-toxic; Activity (Rattus norvegicus [20]): Non-toxic; Activity (Mus musculus [21]): Active; Activity (Rattus norvegicus [22]): inactive
FC(F)(F)c1cccc(-c2c[nH]c(-c3cccc(C(F)(F)F)c3)n2)c1 | > 300 | inactive |  | Non-toxic | Non-toxic | > 300 | > 300 | inactive | Non-toxic | Active | Non-toxic | > 300 | inactive | 100 | inactive | inactive | inactive | > 300 | inactive | inactive | Activity (Mus musculus [30]): Non-toxic; Activity (Mus musculus [31]): Non-toxic; Activity (Mus musculus [15]): Non-toxic; Activity (Mus musculus [17]): Non-toxic; Activity (Mus musculus [21]): inactive
c1ccc(-c2c[nH]c(-c3cccnc3)n2)cc1 | > 300 | Active | inactive | Non-toxic | Non-toxic | 100 | 100 | inactive | Non-toxic | Active | Non-toxic | 100 | inactive | 100 | inactive | Active | inactive | 100 | Active | inactive | Activity (Rattus norvegicus [3]): inactive; Activity (Rattus norvegicus [4]): inactive; Activity (Rattus norvegicus [6]): inactive; Activity (Rattus norvegicus [14]): inactive; Activity (Mus musculus [32]): inactive; Activity (Rattus norvegicus [20]): Non-toxic; Activity (Mus musculus [21]): Active; Activity (Rattus norvegicus [22]): inactive
c1ccc(-c2c[nH]c(-c3ccco3)n2)cc1 | > 300 | inactive | inactive | Non-toxic | Non-toxic | 100 | > 300 | inactive | Non-toxic | Active | Non-toxic | 100 | inactive | 100 | inactive | Active | inactive | 100 | inactive | inactive | Activity (Mus musculus [30]): Non-toxic; Activity (Mus musculus [31]): Toxic; Activity (Mus musculus [15]): Toxic; Activity (Mus musculus [32]): inactive
O=[N+]([O-])c1ccc(-c2c[nH]c(-c3ccccc3)n2)cc1 | > 300 | inactive | inactive | Non-toxic | Non-toxic | > 300 | > 300 | inactive | Non-toxic | Active | Non-toxic | > 300 | inactive | 100 | inactive | Active | inactive | 100 | inactive | inactive | Activity (Mus musculus [30]): Non-toxic; Activity (Mus musculus [31]): Non-toxic; Activity (Mus musculus [15]): Non-toxic; Activity (Mus musculus [17]): Non-toxic; Activity (Mus musculus [32]): inactive
O=[N+]([O-])c1ccc(-c2nc(-c3cccc(C(F)(F)F)c3)c[nH]2)cc1 | > 300 | inactive | inactive | Non-toxic | Non-toxic | > 300 | > 300 | inactive | Non-toxic | Active | Non-toxic | > 300 | inactive | 100 | inactive | inactive | inactive | > 300 | inactive | inactive | Activity (Mus musculus [30]): Non-toxic; Activity (Mus musculus [31]): Non-toxic; Activity (Mus musculus [15]): Non-toxic; Activity (Mus musculus [17]): Non-toxic; Activity (Mus musculus [32]): inactive; Activity (Mus musculus [21]): inactive
Clc1ccc(-c2nc(-c3ccccc3)c[nH]2)cc1 | > 300 | inactive | inactive | Non-toxic | Non-toxic | > 300 | > 300 | inactive | Non-toxic | inactive | Non-toxic | > 300 | inactive | > 300 | inactive | inactive | inactive | > 300 | inactive | inactive | Activity (Mus musculus [30]): Non-toxic; Activity (Mus musculus [31]): Non-toxic; Activity (Mus musculus [15]): Non-toxic; Activity (Mus musculus [17]): Non-toxic; Activity (Mus musculus [32]): inactive; Activity (Mus musculus [21]): inactive
FC(F)(F)c1cccc(-c2c[nH]c(-c3ccc(Cl)cc3)n2)c1 | > 300 | inactive | inactive | Non-toxic | Non-toxic | > 300 | > 300 | inactive | Non-toxic | inactive | Non-toxic | > 300 | inactive | > 300 | inactive | inactive | inactive | > 300 | inactive | inactive | Activity (Mus musculus [30]): Non-toxic; Activity (Mus musculus [31]): Non-toxic; Activity (Mus musculus [15]): Non-toxic; Activity (Mus musculus [17]): Non-toxic; Activity (Mus musculus [32]): inactive; Activity (Mus musculus [21]): inactive
